According to the supplement of paper PMC10307832:

Assays:
Assay in all cases: relative viability (nuclei count vs DMSO), 5 days (fraction); higher = more cells survive
[1] = compound: Cc1ccc2nc(NCCN)c3ncc(C)n3c2c1 + N=C(N)NC(=N)NCCc1ccccc1 [Phenformin] (partner 250 µM)
In short: (§1)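 Medians of duplicate plates are given as relative viability. That measure is the nuclei count in treated wells divided by the count in vehicle wells. Counts were taken on 4× images of lung cancer cell lines in 1536-well plates, 5 days after pin-tool dosing the day after seeding with one drug alone or a fixed anchor-drug dose plus five library-drug doses (not always all listed) in √10 steps.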

[2] = compound: O=C(/C=C/c1ccccc1)NC(NC(=S)Nc1cccc2cccnc12)C(Cl)(Cl)Cl [Salubrinal] + CC(=O)Nc1cccc(-n2c(=O)n(C3CC3)c(=O)c3c(Nc4ccc(I)cc4F)n(C)c(=O)c(C)c32)c1 [Trametinib] (partner 0.02 µM)
In short: as §1

[3] = compound: O=C(/C=C/c1ccccc1)NC(NC(=S)Nc1cccc2cccnc12)C(Cl)(Cl)Cl [Salubrinal] + CS(=O)(=O)N1CCN(Cc2cc3nc(-c4cccc5[nH]ncc45)nc(N4CCOCC4)c3s2)CC1 [Pictilisib] (partner 1 µM)
In short: as §1

[4] = compound: O=C(/C=C/c1ccccc1)NC(NC(=S)Nc1cccc2cccnc12)C(Cl)(Cl)Cl [Salubrinal] + O=C(CCCCCCC(=O)Nc1ccccc1)NO [Vorinostat] (partner 1 µM)
In short: as §1

Cell Line | relative viability ([1]; first compound 0.04 µM) | relative viability ([1]; first compound 0.4 µM) | relative viability ([1]; first compound 1.265 µM) | relative viability ([1]; first compound 4 µM) | relative viability ([2]; first compound 0.08 µM) | relative viability ([2]; first compound 0.253 µM) | relative viability ([2]; first compound 0.8 µM) | relative viability ([2]; first compound 2.53 µM) | relative viability ([2]; first compound 8 µM) | relative viability ([3]; first compound 0.08 µM) | relative viability ([3]; first compound 0.253 µM) | relative viability ([3]; first compound 0.8 µM) | relative viability ([3]; first compound 2.53 µM) | relative viability ([3]; first compound 8 µM) | relative viability ([4]; first compound 0.08 µM) | relative viability ([4]; first compound 0.253 µM) | relative viability ([4]; first compound 0.8 µM) | relative viability ([4]; first compound 2.53 µM) | relative viability ([4]; first compound 8 µM) | relative viability ([1]; first compound 0.1265 µM)
NCI-H727 | 0.436 | 0.527 | 0.555 | 0.64 | 0.375 | 0.375 | 0.383 | 0.372 | 0.403 | 0.318 | 0.312 | 0.433 | 0.197 | 0.359 | 1.39 | 0.948 | 1.06 | 1.1 | 1.24 | –
LU99A | 0.797 | 0.673 | 0.892 | 0.798 | 0.589 | 0.515 | 0.614 | 0.548 | 0.56 | 0.29 | 0.35 | 0.356 | 0.318 | 0.362 | 0.621 | 0.481 | 0.578 | 0.546 | 0.513 | 0.78
EBC-1 | – | – | – | – | – | – | – | – | – | 0.332 | 0.373 | 0.4 | 0.273 | 0.248 | – | – | – | – | – | –
NCI-H2342 | 0.592 | 0.636 | 0.581 | 0.559 | 0.966 | 0.806 | 0.758 | 0.775 | 0.88 | – | – | – | – | – | 0.666 | 0.631 | 0.715 | 0.668 | 0.768 | 0.816
NCI-H1563 | 0.652 | 0.662 | 0.65 | 0.654 | – | – | – | – | – | 0.665 | 0.586 | 0.639 | 0.623 | 0.591 | – | – | – | – | – | 0.684
NCI-H1623 | 0.586 | 0.657 | 0.684 | 0.567 | – | – | – | – | – | – | – | – | – | – | – | – | – | – | – | 0.618
NCI-H1299 | – | – | – | – | – | – | – | – | – | 0.911 | 0.704 | 0.874 | 0.698 | 0.66 | – | – | – | – | – | –
NCI-H522 | 0.695 | 0.622 | 0.689 | 0.543 | 0.631 | 0.802 | 0.639 | 0.859 | 0.709 | – | – | – | – | – | 1.03 | 0.944 | 0.972 | 0.889 | 0.844 | 0.708
A549 | 0.209 | 0.166 | 0.111 | 0.118 | – | – | – | – | – | 0.585 | 0.419 | 0.517 | 0.436 | 0.35 | – | – | – | – | – | 0.199
NCI-H1648 | – | – | – | – | 0.657 | 0.456 | 0.662 | 0.492 | 0.325 | – | – | – | – | – | 0.431 | 0.419 | 0.649 | 0.345 | 0.242 | –
SW 900 | 0.594 | – | 0.674 | 0.849 | 0.69 | 0.765 | 0.7 | 0.774 | 1 | – | – | – | – | – | 0.735 | 0.379 | 0.731 | 0.505 | 0.804 | 0.6
IA-LM | – | – | – | – | – | – | – | – | – | 0.353 | 0.279 | 0.357 | 0.219 | 0.188 | 0.974 | 0.645 | 0.882 | 0.816 | 1.03 | –
ABC-1 | 0.236 | 0.297 | 0.248 | 0.226 | – | – | – | – | – | 0.705 | 0.92 | 0.812 | 0.727 | 0.588 | 1.14 | 0.947 | 0.971 | 1.34 | 1.11 | 0.27
